ChEMBL document CHEMBL5233248, “Resveratrol - A comprehensive review of recent advances in anticancer drug design and development” (Eur J Med Chem, 2020)
Structures can show the parent of a compound that is named as a salt. One block for each compound: values may come before it.

Tests used:
PANC-1 [1] = test: Anticancer activity against human PANC-1 cells assessed as cell growth inhibition incubated for 48 hrs by SRB assay; format: functional; details: Homo sapiens, PANC-1, 48 h
HeLa = test: Anticancer activity against human HeLa cells assessed as cell growth inhibition measured after 72 hrs by MTT assay; format: functional, cell-based; details: Homo sapiens, HeLa, 72 h; read-out: IC50
A549 = test: Anticancer activity against human A549 cells assessed as cell growth inhibition measured after 72 hrs by MTT assay; format: functional, cell-based; details: Homo sapiens, A549, 72 h
[2] = Anticancer activity against Lung adenocarcinoma cell line assessed as cell growth inhibition measured after 72 hrs by MTT assay; format: functional, cell-based; details: Lung adenocarcinoma cell line, 72 h
HT-29 = test: Anticancer activity against human HT-29 cells assessed as cell growth inhibition incubated for 3 days by MTT assay; format: functional, cell-based; details: HT-29, 72 h
MCF7 [3] = test: Anticancer activity against human MCF7 cells assessed as cell growth inhibition incubated for 3 days by MTT assay; format: functional, cell-based; details: MCF7, 72 h
HEK293 = test: Anticancer activity against human HEK293 cells assessed as cell growth inhibition incubated for 3 days by MTT assay; format: functional, cell-based; details: HEK293, 72 h
B16-F10 = test: Anti cancer activity against mouse B16-F10 cells assessed as cell growth inhibition incubated for 40 hrs by Almar Blue stained fluorescence-based assay; format: functional; details: B16-F10, 40 h
ASPC1 = test: Anticancer activity against human ASPC1 cells assessed as cell growth inhibition incubated for 72 hrs by MTT assay; format: functional, cell-based; details: ASPC1, 72 h
BXPC-3 = test: Anticancer activity against human BXPC-3 cells assessed as cell growth inhibition incubated for 72 hrs by MTT assay; format: functional, cell-based; details: BXPC-3, 72 h
Capan-2 = test: Anticancer activity against human Capan-2 cells assessed as cell growth inhibition incubated for 72 hrs by MTT assay; format: functional, cell-based; details: Capan-2, 72 h
HCT-116 [4] = test: Anticancer activity against human HCT-116 cells assessed as cell growth inhibition incubated for 5 days by SRB assay; format: functional, cell-based; details: HCT-116, 120 h
HCT-116 [5] = test: Anticancer activity against human HCT-116 cells assessed as cell growth inhibition; format: functional, cell-based
MDA-MB-231 [6] = test: Anticancer activity against human MDA-MB-231 cells assessed as reduction in cell viability measured after 48 hrs at 150 uM by MTT assay relative to control; format: functional
[7] = Anticancer activity against human AZ-AHR cells assessed as cell growth inhibition incubate for 24 hrs by MTT assay; format: functional, cell-based
U-251 = test: Anticancer activity against human U-251MG cells assessed as cell growth inhibition by CyQuant assay; format: functional, cell-based
MDA-MB-231 [8] = test: Anticancer activity against human MDA-MB-231 cells assessed as cell growth inhibition by CyQuant assay; format: functional, cell-based
MCF7 [9] = test: Anticancer activity against human MCF7 cells assessed as cell growth inhibition by CyQuant assay; format: functional, cell-based
PANC-1 [10] = test: Anticancer activity against human PANC-1 cells assessed as cell growth inhibition by CyQuant assay; format: functional, cell-based
[11] = Cytotoxicity against mouse NIH3T3 cells assessed as cell growth inhibition by CyQuant assay; format: toxicity, cell-based
MCF7 [12] = test: Anticancer activity against human MCF7 cells assessed as cell growth inhibition incubated for 48 hrs by MTS assay; format: functional, cell-based; details: MCF7, 48 h
[13] = Cytotoxicity activity against human CCD-1059Sk cells assessed as cell growth inhibition incubated for 48 hrs by MTS assay; format: toxicity, cell-based
in vitro = details: human, CCD-1059Sk cells and MCF7 cells
Description: Selectivity index, ratio of IC50 for cytotoxicity against CCD-1059Sk cells to IC50 for antiproliferative activity against MCF7 cells

- GI50 (PANC-1 [1]): 0.064 µM
Structure (SMILES): COc1cc(/C=C/c2ccc(OC(=O)CSc3nnc(-c4c(F)cccc4F)o3)cc2)cc(OC)c1

- IC50 (HeLa): 0.48 µM
- IC50 (A549): 2.36 µM
Structure (SMILES): COc1cccc2c1C(=O)c1c(O)c3c(c(O)c1C2=O)C[C@@](O)(C(=O)CO)C[C@@H]3O[C@H]1C[C@H](N)[C@H](O)[C@H](C)O1 [DOXORUBICIN HYDROCHLORIDE]
- IC50 [2]: 1.18 µM

- IC50 (HT-29): 45 µM
- IC50 (MCF7 [3]): 78 µM
Structure (SMILES): COc1cc(/C=C/c2ccc(O[C@@H]3O[C@H](CO)[C@@H](O)[C@H](O)[C@H]3O)cc2)cc(O[C@@H]2O[C@H](CO)[C@@H](O)[C@H](O)[C@H]2O)c1
- IC50 (HEK293): > 100 µM

- IC50 (B16-F10): 1 µM
Structure (SMILES): COc1ccc(/C=C/c2ccc(OC)c(OC)c2)cc1

- GI50 (PANC-1 [1]): 0.064 µM
Structure (SMILES): COc1cc(/C=C/c2ccc(NC(=O)CSc3nnc(-c4cccc(C(F)(F)F)c4)o3)cc2)cc(OC)c1

- IC50 (ASPC1): 3.23 µM
- IC50 (BXPC-3): 22.5 µM
Structure (SMILES): Nc1ccc(/C=C/c2ccc(O)cc2)cc1
- IC50 (Capan-2): 3.03 µM

Structure (SMILES): O=S(=O)(O)Oc1ccc(/C=C/c2cc(O)cc(OS(=O)(=O)O)c2)cc1
- IC50 (HT-29): 56 µM
- IC50 (MCF7 [3]): 26 µM
- IC50 (HEK293): > 100 µM

- IC50 (HCT-116 [4]): 0.6 µM
Structure (SMILES): Oc1ccccc1/C=N/c1ccccc1O

Structure (SMILES): CCCCCCCC(=O)OC[C@H]1O[C@@H](Oc2cc(O)cc(/C=C/c3ccc(O)cc3)c2)[C@H](O)[C@@H](O)[C@@H]1O
- IC50 (HT-29): 39 µM
- IC50 (MCF7 [3]): 52 µM
- IC50 (HEK293): > 100 µM

Structure (SMILES): OC[C@H]1O[C@@H](Oc2cc(/C=C/c3ccc(O)cc3)cc(O[C@@H]3O[C@H](CO)[C@@H](O)[C@H](O)[C@H]3O)c2)[C@H](O)[C@@H](O)[C@@H]1O
- IC50 (HT-29): 24 µM
- IC50 (MCF7 [3]): 72 µM
- IC50 (HEK293): > 100 µM

- IC50 (B16-F10): 1 µM
Structure (SMILES): COc1ccc(/C=C\c2cc(OC)c(OC)c(OC)c2)c(OC)c1

- GI50 (PANC-1 [1]): 0.064 µM
Structure (SMILES): COc1cc(/C=C/c2ccc(NC(=O)CSc3nnc(-c4ccc(C(F)(F)F)cc4)o3)cc2)cc(OC)c1

- GI50 (PANC-1 [1]): 0.064 µM
Structure (SMILES): COc1cc(/C=C/c2ccc(OC(=O)CSc3nnc(-c4cc(OC)c(OC)c(OC)c4)o3)cc2)cc(OC)c1

- IC50 (HeLa): 8.25 µM
- IC50 (A549): 26.3 µM
Structure (SMILES): Oc1cc(O)cc(/C=C/c2ccc(OCc3ccccc3)cc2)c1
- IC50 [2]: 9.43 µM

- GI50 (PANC-1 [1]): 0.064 µM
Structure (SMILES): COc1cc(/C=C/c2ccc(OC(=O)CSc3nnc(-c4ccc(C(F)(F)F)cc4)o3)cc2)cc(OC)c1

Structure (SMILES): COc1ccc(/C=C/c2cc(OC)c(OC)c(OC)c2)cc1
- IC50 (HCT-116 [5]): 1.1 µM

- GI50 (PANC-1 [1]): 0.064 µM
Structure (SMILES): COc1cc(/C=C/c2ccc(NC(=O)CSc3nnc(-c4cnccn4)o3)cc2)cc(OC)c1

- IC50 (HeLa): 5.1 µM
- IC50 (A549): 5.1 µM
Structure (SMILES): CC(C)C(=O)Oc1ccc(/C=C/c2cc(OC(=O)C(C)C)cc(OC(=O)C(C)C)c2)cc1
- IC50 [2]: 5.1 µM

Structure (SMILES): CC(C)(C)C(=O)Oc1ccc(/C=C/c2cc(O)cc(O)c2)cc1
- Activity (MDA-MB-231 [6]): 7.7%

- IC50 (HCT-116 [5]): 5 µM
Structure (SMILES): Oc1cc(O)cc(/C=C/c2ccc(O)c(O)c2)c1 [PICEATANNOL]
- IC50 [7]: 4.5 µM

- GI50 (PANC-1 [1]): 0.064 µM
Structure (SMILES): COc1cc(/C=C/c2ccc(OC(=O)CSc3nnc(-c4cnccn4)o3)cc2)cc(OC)c1

- IC50 (U-251): 6.7 µM
- IC50 (MDA-MB-231 [8]): 18.5 µM
- IC50 (MCF7 [9]): 10.8 µM
- IC50 (PANC-1 [10]): 18.1 µM
Structure (SMILES): COc1cc(/C=C/c2ccc(OC(C)=O)cc2)cc(OC)c1
- IC50 [11]: > 20 µM

- GI50 (PANC-1 [1]): 0.064 µM
Structure (SMILES): COc1ccc(-c2nnc(SCC(=O)Oc3ccc(/C=C/c4cc(OC)cc(OC)c4)cc3)o2)cc1

- IC50 (MCF7 [12]): 129 µM
Structure (SMILES): COc1cc(/C=C/C(=O)N/N=C/c2ccc(O)c(OC)c2)ccc1O
- IC50 at 48 h [13]: 74.6 µM
- selectivity ratio (in vitro): 1.73

- IC50 (HeLa): 6.48 µM
- IC50 (A549): 4.9 µM
Structure (SMILES): O=S(=O)(Oc1ccc(/C=C/c2cc(O)cc(OS(=O)(=O)c3ccccc3)c2)cc1)c1ccccc1
- IC50 [2]: 5.55 µM
